From ChEMBL document CHEMBL1201862, “PubChem BioAssay data set” (2004)
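The compound was tested at five concentrations on cells cultured in 96-well plates, with a 48-hour exposure period. At the GI50, growth is halved.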 The source made the active and inactive calls. No stated cut-off is given here; in the data, active = GI50 up to about 1.1 µM and inactive = higher.

Key:
Test in all cases: NCI-60 cell line screen, 48 h
786-0 = tested on: 786-0
A498 = tested on: A498
A549 = tested on: A549
ACHN = tested on: ACHN
CCRF-CEM = tested on: CCRF-CEM
COLO 205 = tested on: COLO 205
DU-145 = tested on: DU-145
EKVX = tested on: EKVX
HCC 2998 = tested on: HCC 2998
HCT-116 = tested on: HCT-116
HCT-15 = tested on: HCT-15
HL-60 = tested on: HL-60
HOP-62 = tested on: HOP-62
HOP-92 = tested on: HOP-92
HT-29 = tested on: HT-29
Hs-578T = tested on: Hs-578T
K562 = tested on: K562
KM12 = tested on: KM12
M14 = tested on: M14
MCF7 = tested on: MCF7
MDA-MB-231 = tested on: MDA-MB-231
MDA-MB-435 = tested on: MDA-MB-435
MDA-N = tested on: MDA-N
MOLT-4 = tested on: MOLT-4
Malme-3M = tested on: Malme-3M
NCI-H226 = tested on: NCI-H226
NCI-H23 = tested on: NCI-H23
NCI-H522 = tested on: NCI-H522
OVCAR-3 = tested on: OVCAR-3
OVCAR-4 = tested on: OVCAR-4
OVCAR-5 = tested on: OVCAR-5
OVCAR-8 = tested on: OVCAR-8
PC-3 = tested on: PC-3
RPMI-8226 = tested on: RPMI-8226
RXF 393 = tested on: RXF 393
SF-268 = tested on: SF-268
SF-539 = tested on: SF-539
SK-MEL-28 = tested on: SK-MEL-28
SK-MEL-2 = tested on: SK-MEL-2
SK-MEL-5 = tested on: SK-MEL-5
SN12C = tested on: SN12C
SNB-19 = tested on: SNB-19
SR = tested on: SR
SW-620 = tested on: SW-620
T47D = tested on: T47D
TK-10 = tested on: TK-10
U-251 = tested on: U-251
UACC-62 = tested on: UACC-62
UO-31 = tested on: UO-31
CAKI-1 = tested on: CAKI-1
IGROV-1 = tested on: IGROV-1
LOX IMVI = tested on: LOX IMVI
NCI-H460 = tested on: NCI-H460
NCI/ADR-RES = tested on: NCI/ADR-RES
SF-295 = tested on: SF-295
SK-OV-3 = tested on: SK-OV-3
SNB-75 = tested on: SNB-75

Compound: CC(C)C1=CC23CCC4C(C)(C(=O)O)CCCC4(C)C2CC1C1C(=O)N(c2ccc(Cc4ccc(N5C(=O)C6C7CC8C9(C)CCCC(C)(C(=O)O)C9CCC8(C=C7C(C)C)C6C5=O)cc4)cc2)C(=O)C13 (stereo not drawn)
- GI50 (786-0): 10.9 µM (inactive)
- GI50 (A498): 8.51 µM (inactive)
- GI50 (A549): 3.72 µM (inactive)
- GI50 (ACHN): 5.41 µM (inactive)
- GI50 (CCRF-CEM): 5.41 µM (inactive)
- GI50 (COLO 205): 7.06 µM (inactive)
- GI50 (DU-145): 10.3 µM (inactive)
- GI50 (EKVX): 6.58 µM (inactive)
- GI50 (HCC 2998): 10.1 µM (inactive)
- GI50 (HCT-116): 4.39 µM (inactive)
- GI50 (HCT-15): 10.6 µM
- GI50 (HL-60): 9.35 µM (inactive)
- GI50 (HOP-62): 11.6 µM (inactive)
- GI50 (HOP-92): 20.1 µM (inactive)
- GI50 (HT-29): 3.17 µM (inactive)
- GI50 (Hs-578T): 10.7 µM (inactive)
- GI50 (K562): 7.87 µM (inactive)
- GI50 (KM12): 5.97 µM (inactive)
- GI50 (M14): 9.44 µM (inactive)
- GI50 (MCF7): 5.13 µM (inactive)
- GI50 (MDA-MB-231): 15.7 µM (inactive)
- GI50 (MDA-MB-435): 3.55 µM (inactive)
- GI50 (MDA-N): 8.93 µM (inactive)
- GI50 (MOLT-4): 5.5 µM (inactive)
- GI50 (Malme-3M): 16.7 µM (inactive)
- GI50 (NCI-H226): 13.6 µM (inactive)
- GI50 (NCI-H23): 1.93 µM (inactive)
- GI50 (NCI-H522): 8.18 µM (inactive)
- GI50 (OVCAR-3): 10.7 µM (inactive)
- GI50 (OVCAR-4): 14.4 µM (inactive)
- GI50 (OVCAR-5): 20.8 µM (inactive)
- GI50 (OVCAR-8): 5.26 µM (inactive)
- GI50 (PC-3): 3.78 µM (inactive)
- GI50 (RPMI-8226): 9.14 µM (inactive)
- GI50 (RXF 393): 13 µM (inactive)
- GI50 (SF-268): 8.81 µM (inactive)
- GI50 (SF-539): 4.16 µM (inactive)
- GI50 (SK-MEL-28): 10.9 µM (inactive)
- GI50 (SK-MEL-2): 12 µM (inactive)
- GI50 (SK-MEL-5): 12.4 µM (inactive)
- GI50 (SN12C): 10.1 µM (inactive)
- GI50 (SNB-19): 5.85 µM (inactive)
- GI50 (SR): 5.75 µM (inactive)
- GI50 (SW-620): 11.4 µM (inactive)
- GI50 (T47D): 18.1 µM (inactive)
- GI50 (TK-10): 15.6 µM (inactive)
- GI50 (U-251): 3.94 µM (inactive)
- GI50 (UACC-62): 11 µM (inactive)
- GI50 (UO-31): 17.1 µM (inactive)

Compound: C[N+](C)(N)c1nc(N)c(C#N)c(C#N)c1C#N
- GI50 (A498): > 10 µM (inactive)
- GI50 (A549): > 10 µM (inactive)
- GI50 (ACHN): > 10 µM (inactive)
- GI50 (CAKI-1): > 10 µM (inactive)
- GI50 (CCRF-CEM): > 10 µM (inactive)
- GI50 (COLO 205): > 10 µM (inactive)
- GI50 (DU-145): > 10 µM (inactive)
- GI50 (EKVX): > 10 µM (inactive)
- GI50 (HCC 2998): > 10 µM (inactive)
- GI50 (HCT-116): > 10 µM (inactive)
- GI50 (HCT-15): > 10 µM
- GI50 (HL-60): > 10 µM (inactive)
- GI50 (HOP-62): > 10 µM (inactive)
- GI50 (HT-29): > 10 µM (inactive)
- GI50 (Hs-578T): > 10 µM (inactive)
- GI50 (IGROV-1): > 10 µM (inactive)
- GI50 (K562): 7.01 µM (inactive)
- GI50 (LOX IMVI): > 10 µM (inactive)
- GI50 (M14): > 10 µM (inactive)
- GI50 (MCF7): > 10 µM (inactive)
- GI50 (MDA-MB-231): > 10 µM (inactive)
- GI50 (MDA-MB-435): > 10 µM (inactive)
- GI50 (MDA-N): > 10 µM (inactive)
- GI50 (MOLT-4): > 10 µM (inactive)
- GI50 (Malme-3M): > 10 µM (inactive)
- GI50 (NCI-H226): > 10 µM (inactive)
- GI50 (NCI-H23): > 10 µM (inactive)
- GI50 (NCI-H460): > 10 µM (inactive)
- GI50 (NCI-H522): > 10 µM (inactive)
- GI50 (NCI/ADR-RES): > 10 µM (inactive)
- GI50 (OVCAR-3): 1.91 µM (inactive)
- GI50 (OVCAR-4): > 10 µM (inactive)
- GI50 (OVCAR-5): > 10 µM (inactive)
- GI50 (OVCAR-8): > 10 µM (inactive)
- GI50 (PC-3): > 10 µM (inactive)
- GI50 (RPMI-8226): > 10 µM (inactive)
- GI50 (RXF 393): > 10 µM (inactive)
- GI50 (SF-268): > 10 µM (inactive)
- GI50 (SF-295): > 10 µM (inactive)
- GI50 (SF-539): > 10 µM (inactive)
- GI50 (SK-MEL-28): > 10 µM (inactive)
- GI50 (SK-MEL-2): > 10 µM (inactive)
- GI50 (SK-MEL-5): > 10 µM (inactive)
- GI50 (SK-OV-3): > 10 µM (inactive)
- GI50 (SN12C): > 10 µM (inactive)
- GI50 (SNB-19): > 10 µM (inactive)
- GI50 (SNB-75): > 10 µM (inactive)
- GI50 (SR): > 10 µM (inactive)
- GI50 (SW-620): > 10 µM (inactive)
- GI50 (T47D): > 10 µM (inactive)
- GI50 (TK-10): > 10 µM (inactive)
- GI50 (U-251): > 10 µM (inactive)
- GI50 (UACC-62): > 10 µM (inactive)
- GI50 (UO-31): > 10 µM (inactive)
